# In US20050131028A1, “Methods and compositions for the extended duration treatment of pain, inflammation and inflammation-related disorders” (Pharmacia Corporation, priority 2003, published 2005):
# Where “and” joins values, the source holds several entries; their conditions need not be identical. Identical values can stand only once. Like-named read-outs stand apart in the source and are kept apart here.
# Experiments:
# hCOX-1 = hCOX-1 (Homo sapiens, UniProt P23219); assay: hCOX-1 enzyme inhibition (IC50); type: biochemical; conditions: repeated experimental results listed separately
# Description: (§1) The specificity of a given extended duration Cox-2 inhibitor is measured by determining the IC50 or EC50 for each compound described above.
# hCOX-2 = target: T1, hCOX-2 (Homo sapiens, UniProt P35354); assay: hCOX-2 enzyme inhibition (IC50) and selectivity; type: biochemical; conditions: for IC50: repeated experimental results listed separately; for hCOX selectivity hCOX-1/hCOX-2: Cox-1 IC50/Cox-2 IC50
# T1 sequence (P35354 18-604): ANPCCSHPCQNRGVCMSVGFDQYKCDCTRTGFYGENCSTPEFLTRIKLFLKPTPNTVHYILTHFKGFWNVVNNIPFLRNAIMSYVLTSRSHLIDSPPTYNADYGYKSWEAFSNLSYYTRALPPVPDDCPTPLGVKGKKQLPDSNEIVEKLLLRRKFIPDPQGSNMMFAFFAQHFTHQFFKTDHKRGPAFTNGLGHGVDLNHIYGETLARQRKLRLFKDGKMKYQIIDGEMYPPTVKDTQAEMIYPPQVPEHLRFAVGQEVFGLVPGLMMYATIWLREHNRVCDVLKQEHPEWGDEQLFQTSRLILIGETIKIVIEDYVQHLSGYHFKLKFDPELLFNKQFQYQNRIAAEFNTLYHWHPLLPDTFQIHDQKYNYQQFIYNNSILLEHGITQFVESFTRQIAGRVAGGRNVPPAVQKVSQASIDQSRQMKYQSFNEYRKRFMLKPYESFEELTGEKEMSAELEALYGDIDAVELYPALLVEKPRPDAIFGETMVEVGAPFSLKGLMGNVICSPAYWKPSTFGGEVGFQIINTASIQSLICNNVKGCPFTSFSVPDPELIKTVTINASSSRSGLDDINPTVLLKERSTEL
# Description: as §1
# [1] = Canine cassette-dosed pharmacokinetics; type: in vivo, canines (beagles); conditions: for half-life: beagle, dog, plasma, 2 mg/kg; for increase in plasma half-life in canines: versus 4-methylphenyl compound
# Description: Cassette-dosing is a technique in which 2 or more compounds are simultaneously administered to an animal and the pharmacokinetics of each compound is monitored individually even though it is in the same animal/blood sample.
# Cassette-dosing refers to the practice of dosing 2 or more compounds simultaneously to animals. […] Blood samples were collected over time intervals ranging from 0 to 50 days into EDTA tubes and plasma harvested. Plasma drug concentrations were then determined for each compound in the cassette by liquid chromatography-mass spectrometry methods. This process was repeated for each group of compounds (cassette) tested.
# [2] = Canine pharmacokinetics, compounds dosed individually; type: in vivo, canines (beagles); conditions: beagle, dog, plasma, oral 2 or 4 mg/kg, read-out: Canine t1/2 (converted)
# Description: In this example, each compound was administered individually to canines (not cassette dosed). […] Plasma drug concentrations were then determined by liquid chromatography-mass spectrometry methods. This process was repeated for each compound tested.
# [3] = Rat pharmacokinetics, single oral dose, non-cassette; type: in vivo; conditions: for half-life: rat
# Description: All rat pharmacokinetics data is non-cassette dosed. Non-cassette dosed pharmacokinetics means that each compound was dosed individually (i.e. not part of a cassette of compounds). Cassette-dosing is a technique in which 2 or more compounds are simultaneously administered to an animal and the pharmacokinetics of each compound is monitored individually even though it is in the same animal/blood sample.
# At each sample collection time, blood samples were collected from three rats by cardiac puncture and then processed into plasma. […] Plasma drug concentrations were then determined by liquid chromatography-mass spectrometry methods. The mean plasma concentrations from each of the three samples collected at each time point were then plotted as a function of time. This process was repeated for each compound tested.
# [4] = tested on: adjuvant-induced arthritis in male Lewis rats; assay: Adjuvant-induced arthritis in rat paws (paw volume); type: in vivo; conditions: single oral dose, 3 mg/kg (FIG. 2) / 3 mg/mL, followed 28 days
# Description: This experiment was performed following a modified method of Connor, J. et al. (European J. Pharmacology, 1995, 273:15-24). Briefly, arthritis was induced in pathogen-free, male Lewis rats by an intadermal injection of 20 mg/ml Mycobacterium butyricum suspended in squalene in three sites at the base of the tail. The injection of mycobacteria produces a systemic autoimmune response and subsequent chronic inflammation of the joints with many similarities to rheumatoid arthritis. The induced arthritis was allowed to develop for 14 days at which time animals were given a single oral dose of a Cox-2 selective inhibitor at […]. Effectiveness was assessed by the decrease in rat paw edema (paw volume) for 28 days following the Cox-2 inhibitor dose. Paw volume was determined using a water displacement plethysmometer. To gage the drug response, the paw volumes of rats treated with Cox-2 selective inhibitors were compared to normal healthy rats without induced arthritis and without drug (normal-control group) and rats with induced arthritis but without drug (adjuvant-control group).
# All of the compounds tested in this model were effective for a minimum of 5 days.
# [5] = cited from earlier work
# [6] = po, oral 2 mg/kg each compound, cassette, read-out: Canine Cassette-dosed t1/2 (converted)
# [7] = plasma, po, 2 mg/kg, plasma, oral 2 mg/kg, non-cassette dosed, read-out: Rat t1/2 (converted)
# Chain of hCOX-1 (P23219 24-599): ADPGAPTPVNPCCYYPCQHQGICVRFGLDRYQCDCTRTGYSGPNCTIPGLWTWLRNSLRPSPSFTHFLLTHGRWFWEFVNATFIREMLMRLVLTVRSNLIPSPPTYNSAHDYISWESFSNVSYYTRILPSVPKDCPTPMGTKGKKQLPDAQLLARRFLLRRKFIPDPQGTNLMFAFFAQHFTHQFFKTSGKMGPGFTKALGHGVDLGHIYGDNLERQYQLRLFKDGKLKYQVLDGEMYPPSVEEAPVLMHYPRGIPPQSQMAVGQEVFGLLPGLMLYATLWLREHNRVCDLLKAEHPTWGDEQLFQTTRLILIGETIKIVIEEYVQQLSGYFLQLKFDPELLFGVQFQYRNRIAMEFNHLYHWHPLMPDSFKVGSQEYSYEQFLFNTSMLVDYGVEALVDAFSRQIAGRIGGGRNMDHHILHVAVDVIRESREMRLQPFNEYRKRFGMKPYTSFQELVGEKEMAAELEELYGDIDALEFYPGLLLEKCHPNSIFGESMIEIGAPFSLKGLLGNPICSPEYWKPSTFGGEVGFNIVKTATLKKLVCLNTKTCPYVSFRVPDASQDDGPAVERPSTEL
Compound,IC50 (hCOX-1),IC50 (hCOX-2),"half-life [1, 6] [h]",half-life [2] [h],"half-life [3, 7] [h]",also measured
Cc1cc(-c2cc(C(F)(F)F)nn2-c2ccc(S(N)(=O)=O)cc2)ccc1Cl [4-[5-(4-chloro-3-methylphenyl)-3-(trifluoromethyl)-1H-pyrazol-1-yl]benzenesulfonamide],4.92 µM,< 0.137 µM,~44,12,,
COc1cc(-c2cc(C(F)(F)F)nn2-c2ccc(S(N)(=O)=O)cc2)ccc1Br [4-[5-(4-bromo-3-methoxyphenyl)-3-(trifluoromethyl)-1H-pyrazol-1-yl]benzenesulfonamide],30.3 µM and 35.3 µM,0.0453 µM and < 0.137 µM,,71,,hCOX selectivity hCOX-1/hCOX-2 (hCOX-2): 669
NS(=O)(=O)c1ccc(-n2nc(C(F)(F)F)cc2-c2ccc(F)cc2)cc1 [4-[5-(4-fluorophenyl)-3-(trifluoromethyl)-1H-pyrazol-1-yl]benzenesulfonamide],,,572,289,32,
"NS(=O)(=O)c1ccc(-n2nc(C(F)(F)F)cc2-c2ccc(F)c(F)c2)cc1 [4-[5-(3,4-difluorophenyl)-3-(trifluoromethyl)-1H-pyrazol-1-yl]benzenesulfonamide]",,,~881,500,59,
"COc1c(C)cc(-c2cc(C(F)(F)F)nn2-c2ccc(S(N)(=O)=O)cc2)cc1C [4-[5-(4-methoxy-3,5-dimethylphenyl)-3-(trifluoromethyl)-1H-pyrazol-1-yl]benzenesulfonamide]",> 100 µM,0.08 µM,~18,,,
COc1ccc(-c2cc(C(F)(F)F)nn2-c2ccc(S(N)(=O)=O)cc2)cc1Cl [4-[5-(3-chloro-4-methoxyphenyl)-3-(trifluoromethyl)-1H-pyrazol-1-yl]benzenesulfonamide],,,~22,,,
COc1ccc(-c2cc(C(F)(F)F)nn2-c2ccc(S(N)(=O)=O)cc2)cc1 [4-[5-(4-methoxyphenyl)-3-(trifluoromethyl)-1H-pyrazol-1-yl]benzenesulfonamide],,,~21,,,
"COc1c(Cl)cc(-c2cc(C(F)(F)F)nn2-c2ccc(S(N)(=O)=O)cc2)cc1Cl [4-[5-(3,5-dichloro-4-methoxyphenyl)-3-(trifluoromethyl)-1H-pyrazol-1-yl]benzenesulfonamide]",,0.0547 µM and 0.039 µM,~17,,,
Cc1ccc(-c2cc(C(F)(F)F)nn2-c2ccc(S(N)(=O)=O)cc2)cc1Cl [4-[5-(3-chloro-4-methylphenyl)-3-(trifluoromethyl)-1H-pyrazol-1-yl]benzenesulfonamide],57 µM and 12.5 µM and 14.3 µM,0.0249 µM and < 0.137 µM and 0.007 µM,17,,5.1,hCOX selectivity hCOX-1/hCOX-2 (hCOX-2): 2289
"NS(=O)(=O)c1ccc(-n2nc(C(F)(F)F)cc2-c2ccc(Cl)cc2Cl)cc1 [4-[5-(2,4-[dichlorophenyl)-3-(trifluoromethyl)-1H-pyrazol-1-yl]benzenesulfonamide]",,,~771,466,97,
NS(=O)(=O)c1ccc(-n2nc(C(F)(F)F)cc2-c2ccc(Cl)cc2)cc1 [4-[5-(4-chlorophenyl)-3-(trifluoromethyl)-1H-pyrazol-1-yl]benzenesulfonamide],,,~1190,,193,"half-life ([3]; plasma, oral, 2 mg/kg, single dosage administration, read-out: Rat half-life (converted)): 192 h; Rat half-life ([3]; single dosage administration): ≤ 190 h; half-life ([1]; oral, cassette-dosed, single dosage, read-out: canine half-life (converted)): ~1180 h; canine half-life ([1]; cassette-dosed, single dosage): ≤ 1180 h; increase in plasma half-life in canines ([1]; fast metabolizing subtype): 207 fold; increase in plasma half-life in canines ([1]; slow metabolizing subtype): 691 fold; duration of therapeutically effective blood concentration ([1]; without increased or additional dosing): at least 24 hours"
"NS(=O)(=O)c1ccc(-n2nc(C(F)(F)F)cc2-c2ccc(Cl)c(Cl)c2)cc1 [4-[5-(3,4-dichlorophenyl)-3-(trifluoromethyl)-1H-pyrazol-1-yl]benzenesulfonamide]",,,~830,762,157,effectiveness in minimizing rat paw volume over longer time periods [4]: effective extended duration compounds
COc1ccc(-c2cc(C(F)(F)F)nn2-c2ccc(S(N)(=O)=O)cc2)cc1C [4-[5-(4-methoxy-3-methylphenyl)-3-(trifluoromethyl)-1H-pyrazol-1-yl]benzenesulfonamide],,,~36,,,
"NS(=O)(=O)c1ccc(-n2nc(C(F)(F)F)cc2-c2ccc(F)cc2F)cc1 [4-[5-(2,4-[difluorophenyl)-3-(trifluoromethyl)-1H-pyrazol-1-yl]benzenesulfonamide]",38.4 µM and 14 µM and 22.4 µM,0.149 µM and 0.036 µM and < 0.137 µM,~716,233,25,hCOX selectivity hCOX-1/hCOX-2 (hCOX-2): 393
Cc1ccc(-c2cc(C(F)(F)F)nn2-c2ccc(S(N)(=O)=O)cc2)cc1 [4-[5-(4-methylphenyl)-3-(trifluoromethyl)-1H-pyrazol-1-yl]benzenesulfonamide],,,,,,"half-life ([3]; female, in vivo, female rats, non-cassette dosed, comparison data, read-out: Rat t1/2 in Female (converted)): 14 h; half-life ([3]; male, in vivo, male rats, non-cassette dosed, comparison data, read-out: Rat t1/2 in Male (converted)): 3.73 h; Canine t1/2 ([5]; comparison data for the 4-methylphenyl compound): 1.72 to 5.18 h; effective half-life in canines ([5]; fast metabolizing subtype (so in the source)): 5.72 h; effective half-life in canines ([5]; slow metabolizing subtype (so in the source)): 1.72 h"
